This note sets out measurements from patent US20110053949A1, “4-[3-(ARYLOXY)BENZYLIDENE]-3-METHYL PIPERIDINE ARYL CARBOXAMIDE COMPOUNDS USEFUL AS FAAH INHIBITORS” (PFIZER INC., priority 2008, published 2011).

The first experiment has as its target T1, Human FAAH (Homo sapiens, UniProt O00519).
T1 construct: made in house
T1 sequence (O00519 1-579): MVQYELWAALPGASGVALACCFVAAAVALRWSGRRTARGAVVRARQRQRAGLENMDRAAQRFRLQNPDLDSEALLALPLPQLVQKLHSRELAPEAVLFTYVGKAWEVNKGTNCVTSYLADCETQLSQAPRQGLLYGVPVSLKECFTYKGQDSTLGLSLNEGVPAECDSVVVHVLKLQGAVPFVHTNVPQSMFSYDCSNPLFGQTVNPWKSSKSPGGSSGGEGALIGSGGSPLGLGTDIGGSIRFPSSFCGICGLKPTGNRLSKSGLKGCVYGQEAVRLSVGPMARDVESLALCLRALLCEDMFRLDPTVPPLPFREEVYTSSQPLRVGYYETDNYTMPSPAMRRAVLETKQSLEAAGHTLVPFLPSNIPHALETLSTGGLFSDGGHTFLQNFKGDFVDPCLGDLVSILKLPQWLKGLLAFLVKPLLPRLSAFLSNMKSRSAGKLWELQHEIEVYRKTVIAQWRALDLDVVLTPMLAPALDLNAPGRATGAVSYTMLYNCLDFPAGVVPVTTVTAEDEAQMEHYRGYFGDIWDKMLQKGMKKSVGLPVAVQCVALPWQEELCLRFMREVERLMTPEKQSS
The experiment in a line: FAAH enzyme assay (glutamate dehydrogenase coupled, oleamide substrate), irreversible inhibition kinetics. The class given is biochemical. Particulars: human FAAH, 30° C., pH 7.4. Here is the method:
A FAAH enzyme assay may be carried out as described in WO2006/085196 in 384-well clear polystyrene plates in a total volume of 50 μl per well. All percents are by volume. To each well was placed the reaction mixture (40 μl) containing 1-4 nM FAAH, 50 mM NaPi, pH 7.4, 3 mM α-ketoglutarate, 0.15 mM NADH, 7.5 U/ml glutamate dehydrogenase, 2 mM ADP, 1 mM EDTA, and 0.1% Triton X-100 (The concentration shown for each component is the final concentration in the assay). To this mixture was added 5 μl of a compound of Examples 1 to 20 at various concentrations prepared in 50% DMSO (or 5 μl 50% DMSO for controls). This was immediately followed by the addition of 5 μl oleamide (500 μM) dissolved in 75% EtOH/25% DMSO and the reaction mixture is mixed for 1.5 min. The final concentrations of DMSO and EtOH in the assay were each 7.5%. The reactions was then incubated at 30° C. and the absorbance at 340 nm was collected over a period of 90 min with readings taken in 30-second intervals using SpectraMax Plus^384 Microplate Spectrophotometer (Molecular Devices, Sunnyvale, Calif.). Human FAAH used in the assay was prepared as described in the patent application WO 2006/067613. The purity of the enzyme used was greater than 98% based on an analysis by SDS-polyacrylamide gel electrophoresis followed by Coomassie Blue staining.
Initial velocity data (V) is obtained from the slopes of the initial progressive curves. They are plotted as a function of substrate concentration and fit to the Michaelis-Menten equation (1) using Prism (GraphPad Software, Inc., San Diego, Calif.) software to obtain Km and Vmax values.
To obtain potencies of irreversible inhibitors, progressive curves consistent with first order inhibition kinetics (two-step irreversible inhibition mechanism) are fit to equation (2) by nonlinear least squares regressions to determine kobs values at each inhibitor concentration, where [P]t is the absorbance at time t, V0 is a constant related to the steady state rate of the uninhibited reaction, and kobs is the first order rate constant for enzyme inactivation. The inhibitor dissociation constant (Ki) and the first order rate
(2) constant of enzyme inactivation at infinite inhibitor concentration (kinact) are then obtained by fitting the kobs vs. [I] curves to equation (3).
Regarding `CC1CN(C(=O)Nc2cccnn2)CC/C1=C\c1cccc(Oc2ccc(C(F)(F)F)cn2)c1` (single isomer, unassigned) [Example 1, (4E)-3-methyl-N-pyridazin-3-yl-4-(3-{[5-(trifluoromethyl)pyridin-2-yl]oxy}benzylidene)piperidine-1-carboxamide], the “hFAAH Kinact/Ki” value amounted to 4590 M⁻¹ s⁻¹.
On to `CC1CN(C(=O)Nc2cccnn2)CC/C1=C\c1cccc(Oc2ccc(C(F)(F)F)cn2)c1` (single isomer, unassigned) [Example 2, (4E)-3-methyl-N-pyridazin-3-yl-4-(3-{[5-(trifluoromethyl)pyridin-2-yl]oxy}benzylidene)piperidine-1-carboxamide], for which the “hFAAH Kinact/Ki” value was found to be 254 M⁻¹ s⁻¹.
The same measure, in the same setting: as for `CC1CN(C(=O)Nc2cccnc2)CC/C1=C\c1cccc(Oc2ccc(C(F)(F)F)cn2)c1` (single isomer, unassigned) [Example 3, (4E)-3-methyl-N-pyridin-3-yl-4-(3-{[5-(trifluoromethyl)pyridin-2-yl]oxy}benzylidene)piperidine-1-carboxamide], the figure is 4890 M⁻¹ s⁻¹; as for `CC1CN(C(=O)Nc2cccnc2)CC/C1=C\c1cccc(Oc2ccc(C(F)(F)F)cn2)c1` (single isomer, unassigned) [Example 4, (4E)-3-methyl-N-pyridin-3-yl-4-(3-{[5-(trifluoromethyl)pyridin-2-yl]oxy}benzylidene)piperidine-1-carboxamide], 71.4 M⁻¹ s⁻¹; as for `CC1CN(C(=O)Nc2cccnc2)CC/C1=C\c1cccc(Oc2ncc(C(F)(F)F)cn2)c1` (single isomer, unassigned) [Example 16, (4E)-3-methyl-N-pyridin-3-yl-4-(3-{[5-(trifluoromethyl)pyrimidin-2-yl]oxy}benzylidene)piperidine-1-carboxamide], 6930 M⁻¹ s⁻¹.
Same read-out and setting: the result for `CC1CN(C(=O)Nc2cccnc2)CC/C1=C\c1cccc(Oc2ncc(C(F)(F)F)cn2)c1` (single isomer, unassigned) [Example 17, (4E)-3-methyl-N-pyridin-3-yl-4-(3-{[5-(trifluoromethyl)pyrimidin-2-yl]oxy}benzylidene)piperidine-1-carboxamide] reads less than 15.5 M⁻¹ s⁻¹.
Consider “(4E)-N-1,2-benzisoxazol-3-yl-3-methyl-4-(3-{[5-(trifluoromethyl)pyridin-2-yl]oxy}benzylidene)piperidine-1-carboxamide [Example 13]”, for which the “hFAAH Kinact/Ki” value was found to be 733 M⁻¹ s⁻¹.
On the same count and under the same terms, as for “(4E)-N-(6-methoxypyridazin-3-yl)-3-methyl-4-(3-{[5-(trifluoromethyl)pyridin-2-yl]oxy}benzylidene)piperidine-1-carboxamide [Example 12]”, the figure is 2500 M⁻¹ s⁻¹.

The same experiment, now with this note: pH 7.4, human FAAH, 30° C., read-out: hFAAH Kinact/Ki.
As for `CC1CN(C(=O)Nc2cccnc2)CC/C1=C\c1cccc(Oc2ccc(Br)cn2)c1` (racemic) [Example 14, (4E)-4-{3-[(5-bromopyridin-2-yl)oxy]benzylidene}-3-methyl-N-pyridin-3-ylpiperidine-1-carboxamide], the kinact/KI is 747 M⁻¹ s⁻¹.
Consider `CC1CN(C(=O)Nc2cccnc2)CC/C1=C\c1cccc(Oc2ccc(Cl)cn2)c1` (racemic) [Example 15, (4E)-4-{3-[(5-chloropyridin-2-yl)oxy]benzylidene}-3-methyl-N-pyridin-3-ylpiperidine-1-carboxamide], for which the kinact/KI stood at 4170 M⁻¹ s⁻¹.
`COc1ccc(NC(=O)N2CC/C(=C\c3cccc(Oc4ccc(C(F)(F)F)cn4)c3)C(C)C2)cn1` (single isomer, unassigned) [Example 5, (4E)-N-(6-methoxypyridin-3-yl)-3-methyl-4-(3-{[5-(trifluoromethyl)pyridin-2-yl]oxy}benzylidene)piperidine-1-carboxamide]: the kinact/KI stood at 2850 M⁻¹ s⁻¹.
Same read-out and setting: the result for `CC1CN(C(=O)Nc2cnc3[nH]ccc3c2)CC/C1=C\c1cccc(Oc2ccc(C(F)(F)F)cn2)c1` (single isomer, unassigned) [Example 6, (4E)-3-methyl-N-1H-pyrrolo[2,3-b]pyridin-5-yl-4-(3-{[5-(trifluoromethyl)pyridin-2-yl]oxy}benzylidene)piperidine-1-carboxamide] reads 1420 M⁻¹ s⁻¹.
Still for that read-out and setting: the result for `Cc1cncc(NC(=O)N2CC/C(=C\c3cccc(Oc4ccc(C(F)(F)F)cn4)c3)C(C)C2)c1` (single isomer, unassigned) [Example 7, (4E)-3-methyl-N-(5-methylpyridin-3-yl)-4-(3-{[5-(trifluoromethyl)pyridin-2-yl]oxy}benzylidene)piperidine-1-carboxamide] reads 1290 M⁻¹ s⁻¹; that for `CC1CN(C(=O)Nc2ccc(C#N)nc2)CC/C1=C\c1cccc(Oc2ccc(C(F)(F)F)cn2)c1` (single isomer, unassigned) [Example 8, (4E)-N-(6-cyanopyridin-3-yl)-3-methyl-4-(3-{[5-(trifluoromethyl)pyridin-2-yl]oxy}benzylidene)piperidine-1-carboxamide], 2460 M⁻¹ s⁻¹.
Consider `COc1cnc(NC(=O)N2CC/C(=C\c3cccc(Oc4ccc(C(F)(F)F)cn4)c3)C(C)C2)cn1` (single isomer, unassigned) [Example 9, (4E)-N-(5-methoxypyrazin-2-yl)-3-methyl-4-(3-{[5-(trifluoromethyl)pyridin-2-yl]oxy}benzylidene)piperidine-1-carboxamide], for which the kinact/KI was 2390 M⁻¹ s⁻¹.
The same measure, in the same setting: as for `Cc1cnc(NC(=O)N2CC/C(=C\c3cccc(Oc4ccc(C(F)(F)F)cn4)c3)C(C)C2)cn1` (single isomer, unassigned) [Example 10, (4E)-3-methyl-N-(5-methylpyrazin-2-yl)-4-(3-{[5-(trifluoromethyl)pyridin-2-yl]oxy}benzylidene)piperidine-1-carboxamide], the figure is 3390 M⁻¹ s⁻¹; as for `COc1cncc(NC(=O)N2CC/C(=C\c3cccc(Oc4ccc(C(F)(F)F)cn4)c3)C(C)C2)n1` (single isomer, unassigned) [Example 11, (4E)-N-(6-methoxypyrazin-2-yl)-3-methyl-4-(3-{[5-(trifluoromethyl)pyridin-2-yl]oxy}benzylidene)piperidine-1-carboxamide], 1880 M⁻¹ s⁻¹.

The target of the next experiment is T2, rFAAH (Rattus norvegicus, UniProt P97612).
T2 sequence (P97612 1-579): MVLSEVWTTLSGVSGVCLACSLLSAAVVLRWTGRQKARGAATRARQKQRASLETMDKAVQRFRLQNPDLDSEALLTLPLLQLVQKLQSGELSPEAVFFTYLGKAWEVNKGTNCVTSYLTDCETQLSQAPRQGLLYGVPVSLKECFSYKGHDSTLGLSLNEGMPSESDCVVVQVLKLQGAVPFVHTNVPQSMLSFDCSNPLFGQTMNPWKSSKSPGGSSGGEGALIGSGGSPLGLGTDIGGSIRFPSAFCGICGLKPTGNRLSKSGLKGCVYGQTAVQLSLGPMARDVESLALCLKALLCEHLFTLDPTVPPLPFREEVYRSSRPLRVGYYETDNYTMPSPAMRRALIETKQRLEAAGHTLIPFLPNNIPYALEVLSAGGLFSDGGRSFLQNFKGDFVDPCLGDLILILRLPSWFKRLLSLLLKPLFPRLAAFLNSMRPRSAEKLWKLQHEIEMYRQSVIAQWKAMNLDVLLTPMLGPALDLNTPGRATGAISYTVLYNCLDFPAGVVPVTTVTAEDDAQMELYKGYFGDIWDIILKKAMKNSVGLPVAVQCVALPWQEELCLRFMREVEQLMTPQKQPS
The experiment in a line: FAAH_KINACTR rFAAH kobs/I. The class given is biochemical. The settings on record: further data table, substances given by IUPAC name only.
With `CC1CN(C(=O)Nc2cccnn2)CC/C1=C\c1cccc(Oc2ccc(C(F)(F)F)cn2)c1` (stereo not drawn) [(4E)-3-methyl-N-pyridazin-3-yl-4-(3-{[5-(trifluoromethyl)pyridin-2-yl]oxy}benzylidene)piperidine-1-carboxamide], the “FAAH_KINACTR:rFAAH:kobs/I” value is reported as 3730.
